Measured values: patent US20080293640A1, “Polypeptide inhibitors of HSP27 kinase and uses therefor” (Arizona Board of Regents, A body Corporate, of the State of …, priority 2007, published 2008)

Tests used:
[1] = tested on: Rat aortic smooth muscle, A7R5 cells; experiment: ARS or LPA induced phosphorylation of HSP27 in A7R5 cells (western blot); type: cell-based; conditions: BIP 1, 5 or 10 μM or SB 20 μM for 2 h prior to ARS 500 μM or LPA 25 μM for 0.5 h; FIG. 8
Description: The cells were serum starved with DMEM medium supplemented with 1% BSA and 1% penicillin/streptomycin for 24 h. The phosphorylation of HSP27 was induced using arsenite (ARS, 500 μM) or lysophosphatidic acid (LPA, 25 μM) for 0.5 h. Cells were either untreated or pre-treated with BIP (1, 5 or 10 μM) or SB (20 μM) for 2 h prior to the stimulation with ARS or LPA. Cells were frozen after treatment and analyzed by SDS-PAGE and western blot. The data are shown in FIG. 8; Panels A and B are representative western blots, while Panels C and D provide the data. The bands were quantified by densitometry, and phosphorylated HSP27 or non-phosphorylated HSP27 expressions were related to actin expression to correct for loading differences. The ratio of phosphorylated HSP27/HSP27 (relative p-HSP27/HSP27) in untreated cells was set to 1 for comparison of different blots. Data expressed as mean ±standard deviation of 4 experiments. *: p<0.05 compared to the untreated cells (C).

[2] = tested on: rat aortic smooth muscle (A7R5) cells; experiment: LPA induced CTGF expression in A7R5 cells (western blot); type: cell-based; conditions: BIP 10 or 20 μM or SB 20 μM for 2 h prior to LPA 25 μM, 24 h; FIG. 9
Description: The cells were serum starved with DMEM medium supplemented with 1% BSA and 1% penicillin/streptomycin for 24 h. Cells were either untreated (C) or pre-treated with BIP (10 or 20 μM) or SB (20 μM) for 2 h prior the stimulation with lysophosphatidic acid (LPA, 25 μM). After 24 h the cells were lysed, protein extracted and separated by SDS-PAGE and analyzed by western blotting. The data are shown in FIG. 9; Panel A is a representative western blot, while Panel B provides the data. The bands were quantified by densitometry, and CTGF expression was related to actin expression to correct for loading differences. CTGF expression in untreated cells (C) was set to 1 for comparison of different blots. Data expressed as mean ±standard deviation of 3 experiments. *: p<0.05 compared to the cells stimulated with LPA.

[3] = tested on: human saphenous vein (HSV); experiment: Sodium nitroprusside induced relaxation of human saphenous vein segments in a muscle bath; conditions: pretreated 2 hrs with 25 μM SB203580 or 30 μM BIP; contracted with NE 0.5 μM; SNP 0-1 μM; n=3; FIG. 5
Description: Segments of human saphenous vein (HSV) were equilibrated in a muscle bath and pretreated with buffer (control), 25 μM SB203580 (SB) or 30 μM BIP for 2 hrs and then contracted with norepinephrine (NE, 0.5 μM) and relaxed with increasing doses of sodium nitroprusside (SNP, 0-1 μM).

[4] = tested on: Human saphenous vein rings; experiment: CTGF expression and phosphorylation of HSP27 in saphenous vein organ culture model (western blot); conditions: BIP 5 or 10 μM, SB 20 μM; 14 days; related to actin, untreated set to 1; FIG. 7
Description: The human saphenous vein rings were cultured in RPMI medium supplemented with L-glutamine (1%), penicillin/streptomycin (1%) and FBS (30%) at 5% CO2 and 37° C. for 14 days. The rings were either untreated (Control, C) or treated with BIP (5 or 10 μM) or SB (20 μM). Rings were frozen after 14 days and protein was extracted and separated by SDS-PAGE and analyzed by western blot using the antibodies as indicated. The data is shown in FIG. 7; Panel A is a representative blot, and Panels B and C show the data summary. The bands were quantified by densitometry, and CTGF, phosphorylated HSP27 or non-phosphorylated HSP27 expressions were related to actin expression to correct for loading differences. The expression of CTGF and HSP27 and phospho-HSP27 in untreated rings was set to 1 for comparison of different blots. Data expressed as mean ±standard deviation of 6 experiments (panel right). *: p<0.05 compared to the untreated rings (C).

[5] = tested on: Human saphenous vein rings; experiment: Intimal thickening in human saphenous vein rings, 14 day organ culture; conditions: BIP 5 or 10 μM, SB 20 μM; 14 days; FIG. 6
Description: Human saphenous vein rings were cultured in RPMI medium supplemented with L-glutamine (1%), penicillin/streptomycin (1%) and FBS (30%) at 5% CO2 and 37° C. for 14 days. The rings were either untreated (C) or treated with BIP (5 or 10 μM), SB (20 μM) or recombinant HSP27 protein (r-HSP27). * p<0.05 compared to the control (untreated) rings. After 14 days, the rings were fixed in formalin, embedded in paraffin, sectioned at 10 micrometer and stained using Weigert's Resorcin Fuchsin. The slides were analyzed by Zeiss microscope with 40× objective. The intimal thickness was measured using Zeiss and Adobe Photoshop software.

human keloid fibroblasts [6] = experiment: TGF-β1 induced expression of CTGF and collagen in human keloid fibroblasts (immunoblot); type: cell-based
Excerpt: (§1) One important downstream signaling event in the TGFB signaling pathway is the activation of HSP27 kinase. We have designed a cell permeable inhibitor of this kinase (BIP) that effectively blocks its activity. In this study, we employ stable isotopic labeling by amino acids in cell culture (SILAC) as a means to quantitate the protein expression differences manifest during 1) TGF-β1 stimulation, 2) TGF-β1 stimulation in the presence of BIP, or 3) no treatment at all (control) in a keloid fibroblast cell line. Human keloid fibroblasts were grown to 80% confluence, and then serum-starved for 48 h. The cells were subsequently stimulated with nothing (control), with 1.25 ng/ml of transforming growth factor beta 1 (TGFβ) for 24 h, or 10 μM of a BIP for 2 h followed by TGFβ1 for 24 h (TGFβ+BIP). The expression of CTGF and collagen was assessed by immunoblot and normalized to b-actin expression. Phospho-HSP27 was expressed as a ratio to endogenous HSP27. Quantitative results represent average ±standard deviation from 3 independent experiments.
Human keloid fibroblasts were maintained in Dulbecco's modified Eagle's medium (DMEM) supplemented with fetal calf serum (10%) and streptomycin/penicillin (1%). They were grown to 80% confluence, and then serum-starved for 48 h. […] The expression of CTGF and collagen was assessed by immunoblot and normalized to GAPDH (loading control) expression. Results in the graphs (FIG. 3) represent average ±standard deviation from 3 independent experiments.
In a further example, BIP was used at lower concentrations (5 or 10 μM).

[7] = tested on: rat aortic smooth muscle (A7R5) cells; experiment: Scratch migration of A7R5 cells stimulated with LPA or TGF; type: cell-based; conditions: BIP 10 μM for 2 h prior to LPA 25 μM or TGF 2.5 ng/mL; FIG. 10
Description: A7R5 cells were serum starved with DMEM medium supplemented with 1% BSA and 1% penicillin/streptomycin for 24 h. A scratch made in the dishes using the tip of a pipette, and the cells were rinsed 3 times with PBS. Cells were untreated (C) or pre-treated with BIP (10 μM) for 2 h prior the stimulation with lysophosphatidic acid (LPA, 25 μM) or TGF (2.5 ng/mL). *: p<0.05 compared to the cells stimulated with LPA or TGF.

[8] = tested on: Human Aortic Endothelial Cells; experiment: Endothelial cell proliferation (CyQuant NF Cell Proliferation Assay); type: cell-based; conditions: 1, 10 or 50 μM BIP, 16 hours
Description: Human Aortic Endothelial Cells (Passage 2) (Cascade Biologics) were seeded into 96-well plates at a concentration of 2000 cells per well as determined using a hemocytometer and allowed to adhere for 4 hours. They were then treated with a final concentration of 1, 10 or 50 μM MK2 inhibitor peptide (BIP), 1, 10, or 50 μM scrambled peptide (SCR), or and equal volume of PBS. Cells were returned to the incubator for 16 hours and counted on a Molecular Devices M5 spectrophotometer after 1 hour treatment with CyQuant NF Cell Proliferation Assay (Invitrogen).

human keloid fibroblasts [9] = experiment: TGF-β1 induced phosphorylation of HSP27 in human keloid fibroblasts (immunoblot); type: cell-based
Excerpt: as §1
Human keloid fibroblasts were maintained in Dulbecco's modified Eagle's medium (DMEM) supplemented with fetal calf serum (10%) and streptomycin/penicillin (1%). They were grown to 80% confluence, and then serum-starved for 48 h. […] The phosphorylation of HSP27 was assessed by immunoblot analysis using antibodies as indicated. B, The ratio of P-P27 to P27 was calculated and the percent phosphorylation was determined with respect to the phosphorylation obtained with TGF b (lane 2).
In a separate example, lower concentrations of BIP (5 μM and 10 μM) were employed. […] TGF-β1-stimulated cells were treated with BIP (5 or 10 μM) for 24 h, and HSP27 and phospho-HSP27 levels were quantified relative to β-actin expression to correct for loading differences and normalized to untreated levels.

MAPKAPKII = MAPKAPKII (Homo sapiens, UniProt P49137); experiment: In vitro phosphorylation of recombinant HSP27 with […] (immunoblot); type: biochemical; conditions: MAPKAPKII 50 ng, 30 min at 30° C.; ratio P-P27 to P27, percent phosphorylation vs no inhibitor; FIG. 1
Sequence of MAPKAPKII (P49137 whole entry): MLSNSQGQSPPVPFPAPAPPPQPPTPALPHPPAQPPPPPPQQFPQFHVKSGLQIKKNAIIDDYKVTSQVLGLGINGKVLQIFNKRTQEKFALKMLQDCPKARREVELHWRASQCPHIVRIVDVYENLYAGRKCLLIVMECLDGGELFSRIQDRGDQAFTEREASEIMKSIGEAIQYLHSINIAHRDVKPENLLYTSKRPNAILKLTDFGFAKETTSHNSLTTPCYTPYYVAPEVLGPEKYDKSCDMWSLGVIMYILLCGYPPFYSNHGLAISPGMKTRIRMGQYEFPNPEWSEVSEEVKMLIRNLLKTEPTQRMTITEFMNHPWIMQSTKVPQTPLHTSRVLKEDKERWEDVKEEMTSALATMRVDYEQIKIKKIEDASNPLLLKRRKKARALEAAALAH
Description: Recombinant HSP27 ([…]) was phosphorylated with no enzyme (control, lane 1), […] (50 ng) in the absence (lane 2) or presence of 200 μM ([…]) (SEQ ID NO: 44) obtained from Calbiochem, (lane 3), or BIP (HSP27 kinase inhibitor peptide, […] (SEQ ID NO: 45) (lane 4) or HSP20 phosphopeptide (PTD-P20, lane 4) for 30 min at 30° C. The reaction mixtures were inactivated and separated by SDS-PAGE and transferred to PVDF membrane. The blot was probed with antibodies against HSP27 and phospho-HSP27. The ratio of P-P27 to P27 was calculated and the percent phosphorylation was determined with respect to the phosphorylation obtained in the absence of inhibitor (lane 2). This blot is a representative of 2 separate experiments.

human keloid fibroblasts [10] = experiment: TGF-β1 induced phosphorylation of HSP27 in human keloid fibroblasts (fluorescence microscopy); type: cell-based; conditions: 60 μM BIP for 2 h followed by TGF-β1 1.25 ng/ml for 24 h
Description: Human keloid fibroblasts were maintained in Dulbecco's modified Eagle's medium (DMEM) supplemented with fetal calf serum (10%) and streptomycin/penicillin (1%). They were grown on cover slips and then serum-starved for 48 h. […] Cells were washed, processed for microscopy and labelled with Cy2 for phospho-HSP27 (ser 78/82, green fluorescence), Alexa 586-conjugated phalloidin (red) to reveal the actin cytoskeleton and DAPI (blue) to reveal nucleus, magnification 40×. Pre-treatment of cells with BIP followed by TGFb1 reduced phosphorylation of HSP27 in keloid fibroblasts.

human keloid fibroblasts [11] = experiment: TGF-β1 induced stress fiber formation in human keloid fibroblasts (phalloidin microscopy); type: cell-based; conditions: 60 μM BIP for 2 h followed by TGF-β1 1.25 ng/ml for 24 h
Description: Human keloid fibroblasts were maintained in Dulbecco's modified Eagle's medium (DMEM) supplemented with fetal calf serum (10%) and streptomycin/penicillin (1%). They were grown on cover slips and then serum-starved for 48 h. […] Cells were washed, processed for microscopy and labelled with Alexa 586-conjugated phalloidin to reveal the actin cytoskeleton and DAPI to reveal nucleus, magnification 40×.

[12] = 10 μM BIP for 2 h followed by TGFβ1 1.25 ng/ml for 24 h
[13] = 60 μM BIP for 2 h followed by TGF-β1 1.25 ng/ml for 24 h, normalized to GAPDH, FIG. 3

C[S+]([O-])c1ccc(-c2nc(-c3ccncc3)c(-c3ccc(F)cc3)[nH]2)cc1 (stereo not shown) [SB, SB 203580, reference compound]
phosphorylation of HSP27 (relative p-HSP27/HSP27) [1]: Inhibits
LPA induced CTGF expression [2]: Inhibits
sodium nitroprusside induced relaxation of saphenous vein [3]: significant increases
CTGF expression in saphenous vein [4]: Inhibits
phosphorylation of HSP27 in saphenous vein [4]: Inhibits
thickening of the intimal layer in saphenous vein [5]: Inhibits

WLRRIKAWLRRIKALNRQLGVAA [BIP]
phosphorylation of HSP27 (relative p-HSP27/HSP27) [1]: inhibits
LPA induced CTGF expression [2]: inhibits
TGFβ1 induced expression of CTGF (human keloid fibroblasts [6]; [12]): inhibits
TGFβ1 induced expression of collagen (human keloid fibroblasts [6]; [12]): inhibits
TGF-β1 induced expression of CTGF (human keloid fibroblasts [6]; [13]): inhibits
TGF-β1 induced expression of collagen (human keloid fibroblasts [6]; [13]): inhibits
sodium nitroprusside induced relaxation of saphenous vein [3]: significant increases
CTGF expression in saphenous vein [4]: inhibits
phosphorylation of HSP27 in saphenous vein [4]: inhibits
migration of cells [7]: inhibits
EC proliferation [8]: Does Not Inhibit
phosphorylation of HSP27 (phospho-HSP27 as ratio to endogenous HSP27) (human keloid fibroblasts [9]; 10 μM BIP for 2 h followed by TGFβ1 for 24 h, FIG. 2): reduces
TGF-β1 induced phosphorylation of HSP27, immunoblot (human keloid fibroblasts [9]; 10 μM BIP for 24 h, TGF-β1-stimulated cells, relative to β-actin, normalized to untreated): inhibits
TGF-β1 induced phosphorylation of HSP27 (ratio P-P27 to P27), immunoblot (human keloid fibroblasts [9]; 60 μM BIP for 2 h followed by TGFβ-1 […] for 24 h, n=3, FIG. 4): effectively inhibited
MAPKAPKII induced phosphorylation of HSP27 in vitro (MAPKAPKII): inhibits
TGF-β1 induced phosphorylation of HSP27 (ser 78/82), fluorescence microscopy (human keloid fibroblasts [10]): reduced
central actin (human keloid fibroblasts [11]): loss of central actin
stress fiber formation (human keloid fibroblasts [11]): reduced stress fiber formation
thickening of the intimal layer in saphenous vein [5]: inhibits
